This test relates to Plasmodium berghei. The experiment in a line: Luciferase/luciferin-expressing antifolate-resistant parasites were used to infect a culture of HepG2 cells that were pre-incubated with compounds. Infected hepatocytes emit light due to the luciferase reaction. Assay results are presented as the percent inhibition of light emission compared to control. […]. In kind it is functional. To be noted: sporozoite; for IC90: read-out: LUCIFERASE INFECTION ASSAY - IC90.

Setting [1] is: read-out: LUCIFERASE INFECTION ASSAY - IC50.

Bounds are passed on as bounds.

As a reminder, the IC50 is the midpoint of a concentration-inhibition curve. As a reminder, the IC90 is the concentration at which the effect reaches the 90% level. In the case of `COc1cc(OC)cc(C2c3c(C)nn(-c4ccccc4)c3NC(=O)C2NC(=O)c2ccccc2)c1` (stereo not given), the IC90 is greater than 10 µM. In addition, the IC50 under setting [1] was greater than 10 µM.

As for `CCC(CO)Nc1ccc2ncc(Br)n2n1` (stereo not given), the IC90 was greater than 11.6 µM. Moreover, the IC50 (HEPG2TOX_HILL_SLOPE 18.2, HEPG2TOX_R_SQUARED 0.907, PBLUC_HILL_SLOPE 0.763, PBLUC_R_SQUARED 0.712, read-out: LUCIFERASE INFECTION ASSAY - IC50) amounted to 4.83 µM.

Regarding `O=C(C(Sc1nc2cc(S(=O)(=O)N3CCCCC3)ccc2o1)c1ccccc1)N1CCCCC1` (stereo not given), the IC90 was greater than 10 µM. Besides, where the note is “HEPG2TOX_HILL_SLOPE 0.777, HEPG2TOX_R_SQUARED 0.137, read-out: LUCIFERASE INFECTION ASSAY - IC50”, the IC50 was greater than 10 µM.

Turning to `CC(=O)c1cccc(-c2cnc3cnc(-c4ccccc4Cl)cn23)c1`, the IC90 was greater than 9.49 µM. In addition, the IC50 (PBLUC_HILL_SLOPE 3.8, PBLUC_R_SQUARED 0.614, read-out: LUCIFERASE INFECTION ASSAY - IC50) worked out at 6.8 µM.

On to `O=[N+]([O-])c1ccc(S(=O)(=O)c2ccc(C(F)(F)F)cn2)nc1`, for which the IC90 came to 6.39 µM. Moreover, the IC50 (FFLUC_HILL_SLOPE 150, FFLUC_R_SQUARED 0.542, HEPG2TOX_HILL_SLOPE 3, HEPG2TOX_R_SQUARED 0.956, PBLUC_HILL_SLOPE 6.23, PBLUC_R_SQUARED 0.341, read-out: LUCIFERASE INFECTION ASSAY - IC50) came out at 4.49 µM.

Turning to `CCOCCCNC(=O)/C(C#N)=C/c1ccc(Cl)c([N+](=O)[O-])c1`, the IC90 was found to be 9.95 µM. For the same compound, the IC50 under setting [1] is 5.19 µM.

As for `CC(C)c1nc(NCC2CCCO2)c(C#N)c2c1CCCC2` (stereo not given), the IC90 was greater than 11 µM. Moreover, the IC50 (PBLUC_HILL_SLOPE 0.297, PBLUC_R_SQUARED 0.0572, read-out: LUCIFERASE INFECTION ASSAY - IC50) is greater than 11 µM.

Regarding `O=C(Cn1ncc(Cl)c(Cl)c1=O)Nc1cc(Cl)ccc1[N+](=O)[O-]`, the IC90 was found to be 3.5 µM. For the same compound, under “FFLUC_HILL_SLOPE 13.5, FFLUC_R_SQUARED 0.43, HEPG2TOX_HILL_SLOPE 9.94, HEPG2TOX_R_SQUARED 0.973, PBLUC_HILL_SLOPE 20.4, PBLUC_R_SQUARED 0.69, read-out: LUCIFERASE INFECTION ASSAY - IC50”, the IC50 was 3.14 µM.

For the compound `O=C(NC(=S)NNc1ncc(C(F)(F)F)cc1Cl)c1ccccc1`, the IC90 stood at 0.377 µM. The IC50 (FFLUC_HILL_SLOPE 148, FFLUC_R_SQUARED 0.758, HEPG2TOX_HILL_SLOPE 0.501, HEPG2TOX_R_SQUARED 0.887, PBLUC_HILL_SLOPE 13.6, PBLUC_R_SQUARED 0.819, read-out: LUCIFERASE INFECTION ASSAY - IC50) is 0.321 µM.

For `CC(=O)c1c(C)[nH]c(C(=O)OCC(=O)/C=C2\N(C)c3ccccc3C2(C)C)c1C`, the IC90 is greater than 10 µM. Further, where the note is “HEPG2TOX_HILL_SLOPE 1.65, HEPG2TOX_R_SQUARED 0.38, PBLUC_HILL_SLOPE 17.8, PBLUC_R_SQUARED 0.202, read-out: LUCIFERASE INFECTION ASSAY - IC50”, the IC50 amounted to 9.63 µM.

As for `O=C(Nc1ccnn1Cc1ccccc1)c1ccc(C(=O)c2ccccc2)cc1`, the IC90 is greater than 10 µM. In addition, the IC50 (PBLUC_HILL_SLOPE 1.71, PBLUC_R_SQUARED 0.158, read-out: LUCIFERASE INFECTION ASSAY - IC50) stood at 5.74 µM.

As to `COCCCNc1nccn2c(-c3ccccc3OC)cnc12`, the IC90 worked out at 5 µM. In addition, the IC50 (FFLUC_HILL_SLOPE 1.63, FFLUC_R_SQUARED 0.685, HEPG2TOX_HILL_SLOPE 3.12, HEPG2TOX_R_SQUARED 0.689, PBLUC_HILL_SLOPE 1.97, PBLUC_R_SQUARED 0.68, read-out: LUCIFERASE INFECTION ASSAY - IC50) was 1.64 µM.

On to `CN(C)c1cc(-c2cc(Cl)sc2Cl)oc(=O)c1Cl`, for which the IC90 is greater than 10.2 µM. Under setting [1], the IC50 is greater than 10.2 µM.

`O=C(Nc1nc(C23CC4CC(CC(C4)C2)C3)cs1)C1=COCCO1`: the IC90 is greater than 10 µM. The IC50 (PBLUC_HILL_SLOPE 3.95, PBLUC_R_SQUARED 0.0619, read-out: LUCIFERASE INFECTION ASSAY - IC50) stood at 7.07 µM.

For the compound `COc1ccc(CCNC(=O)c2ccc3cc[nH]c3c2)cc1`, the IC90 was greater than 11.2 µM. The IC50 (PBLUC_HILL_SLOPE 0.599, PBLUC_R_SQUARED 0.245, read-out: LUCIFERASE INFECTION ASSAY - IC50) is 4.75 µM.

Consider `O=C(c1cccc(-c2ccncc2)c1)c1cnc(Nc2cccc(Br)c2)[nH]1`, for which the IC90 was found to be 2.54 µM. For the same compound, the IC50 (HEPG2TOX_HILL_SLOPE 2.34, HEPG2TOX_R_SQUARED 0.815, PBLUC_HILL_SLOPE 3.59, PBLUC_R_SQUARED 0.729, read-out: LUCIFERASE INFECTION ASSAY - IC50) came to 1.38 µM.

Consider `Fc1ccccc1-c1cnn2c(NCCc3ccccn3)ccnc12`, for which the IC90 amounted to 0.681 µM. The IC50 (FFLUC_HILL_SLOPE 1.74, FFLUC_R_SQUARED 0.803, PBLUC_HILL_SLOPE 0.998, PBLUC_R_SQUARED 0.825, read-out: LUCIFERASE INFECTION ASSAY - IC50) was 0.0754 µM.

On to `O=C1C=CC(=O)N1c1cccc2ccccc12`, for which the IC90 is greater than 14.8 µM. For the same compound, the IC50 under setting [1] was greater than 14.8 µM.

Consider `CCOc1ccc(Oc2ccc(S(=O)(=O)Oc3ccccc3C(N)=O)cc2)cc1`, for which the IC90 came to 3.39 µM. For the setting “PBLUC_HILL_SLOPE 12.7, PBLUC_R_SQUARED 0.259, read-out: LUCIFERASE INFECTION ASSAY - IC50”, the IC50 turned out to be 2.85 µM.

As for `COc1ccc2c(CC(=O)N(c3cc(C)cc(C)c3)c3nc(-c4ccc(Br)cc4)cs3)coc2c1`, the IC90 was greater than 10 µM. The IC50 (FFLUC_HILL_SLOPE 2.23, FFLUC_R_SQUARED 0.6, read-out: LUCIFERASE INFECTION ASSAY - IC50) is greater than 10 µM.

As for `Cc1csc2nc(COC(=O)c3ccc(-c4nc5ccccc5s4)o3)cc(=O)n12`, the IC90 is greater than 10 µM. Besides, the IC50 under setting [1] is greater than 10 µM.

`COC(=O)Cc1[nH]n(-c2ccccc2)c(=O)c1C(C)=NCc1cccnc1`: the IC90 was greater than 9.06 µM. For the same compound, the IC50 (HEPG2TOX_HILL_SLOPE 0.403, HEPG2TOX_R_SQUARED 0.018, read-out: LUCIFERASE INFECTION ASSAY - IC50) was greater than 9.06 µM.

For the compound `c1csc(-c2cnc3sc(NCC4CCOCC4)nn23)c1`, the IC90 is greater than 10.3 µM. Moreover, the IC50 under setting [1] was greater than 10.3 µM.

Consider `Cc1nsc(N)c1C(=O)OCc1cc(=O)n2c3c(sc2n1)CCCC3`, for which the IC90 was greater than 10 µM. Besides, for the setting “FFLUC_HILL_SLOPE 11.9, FFLUC_R_SQUARED 0.297, read-out: LUCIFERASE INFECTION ASSAY - IC50”, the IC50 is greater than 10 µM.

As for `COc1ccc(-c2cnn3ccc(Nc4ccc(OC)nc4)nc23)c(OC)c1`, the IC90 was determined as 3.63 µM. In addition, the IC50 (HEPG2TOX_HILL_SLOPE 6.09, HEPG2TOX_R_SQUARED 0.857, PBLUC_HILL_SLOPE 12.3, PBLUC_R_SQUARED 0.558, read-out: LUCIFERASE INFECTION ASSAY - IC50) amounted to 3.03 µM.

As to `CCOC(=O)/C=c1\s/c(=C\c2ccc(Cl)cc2)c(=O)n1CC(=O)c1ccc(Cl)cc1`, the IC90 is greater than 10 µM. For the same compound, the IC50 under setting [1] was greater than 10 µM.

`COc1cc(-c2cc(-c3ccc(S(C)(=O)=O)cc3)cnc2N)ccc1O`: the IC90 was 1.1 µM. Besides, the IC50 (HEPG2TOX_HILL_SLOPE 0.691, HEPG2TOX_R_SQUARED 0.303, PBLUC_HILL_SLOPE 2.60E+03, PBLUC_R_SQUARED 0.903, read-out: LUCIFERASE INFECTION ASSAY - IC50) was 1.1 µM.

Consider `COc1cc2c(cc1OC)CN(C(=O)c1ccc(OCC(F)(F)F)nc1)CC2`, for which the IC90 is 7.21 µM. Besides, the IC50 (HEPG2TOX_HILL_SLOPE 0.758, HEPG2TOX_R_SQUARED 0.894, PBLUC_HILL_SLOPE 2.65, PBLUC_R_SQUARED 0.321, read-out: LUCIFERASE INFECTION ASSAY - IC50) turned out to be 3.14 µM.

For the compound `Cc1onc(-c2ccccc2Cl)c1NC(=O)Nc1cc(C(F)(F)F)cc(C(F)(F)F)c1`, the IC90 turned out to be 6.51 µM. In addition, for the setting “PBLUC_HILL_SLOPE 3.23, PBLUC_R_SQUARED 0.494, read-out: LUCIFERASE INFECTION ASSAY - IC50”, the IC50 worked out at 3.3 µM.

Consider `Cc1nc(COc2ccc(F)cc2)sc1C(=O)Nc1nc2c(s1)CC(C)CC2` (stereo not given), for which the IC90 was greater than 10 µM. For the same compound, the IC50 under setting [1] was greater than 10 µM.

Turning to `OC(c1cccc(OC(F)(F)F)c1)c1nnc(Nc2ccc(F)c(Cl)c2)s1` (stereo not given), the IC90 was greater than 10 µM. Besides, where the note is “FFLUC_HILL_SLOPE 2.61, FFLUC_R_SQUARED 0.0634, read-out: LUCIFERASE INFECTION ASSAY - IC50”, the IC50 was greater than 10 µM.

For `COc1ccc(CN2C(=O)N(CC(C)C)C3(CCN(CCCc4ccccc4)CC3)C2=O)cc1`, the IC90 worked out at 4.86 µM. For the same compound, the IC50 (HEPG2TOX_HILL_SLOPE 0.288, HEPG2TOX_R_SQUARED 0.281, PBLUC_HILL_SLOPE 3.96, PBLUC_R_SQUARED 0.368, read-out: LUCIFERASE INFECTION ASSAY - IC50) was 2.79 µM.

Turning to `CCN1/C(=C\C(=O)c2ccccc2Oc2ccccc2)C(C)(C)c2c1ccc1ccccc21`, the IC90 turned out to be 8.43 µM. Moreover, the IC50 (HEPG2TOX_HILL_SLOPE 8.78, HEPG2TOX_R_SQUARED 0.227, PBLUC_HILL_SLOPE 3.21, PBLUC_R_SQUARED 0.612, read-out: LUCIFERASE INFECTION ASSAY - IC50) amounted to 4.25 µM.

For `CC(C)(C)c1ccc(CSc2nnc(-c3ccc(C(C)(C)C)cc3)n2Cc2ccco2)cc1`, the IC90 was greater than 7.18 µM. Besides, the IC50 (PBLUC_HILL_SLOPE 3.03, PBLUC_R_SQUARED 0.36, read-out: LUCIFERASE INFECTION ASSAY - IC50) worked out at 5.09 µM.

`COc1cccc(/C=N/NC(=S)NC2CC3CCC2C3)c1O` (stereo not given): the IC90 was greater than 10.3 µM. Also, under setting [1], the IC50 was greater than 10.3 µM.
